{"source": "patent US8952024B2", "about": "“Herbicidal pyrimidone derivatives” (E I du Pont de Nemours and Company, priority 2009, dated 2015)", "assay_in_all_cases": "Test B pre-/postemergence plant response", "assay_type_in_all_cases": "in vivo", "key": {"corn (Zea mays)": {"system": "corn (Zea mays)", "method_in_brief": "(§1)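 Response scores were assigned visually after 13 to 15 days in a greenhouse, comparing treated pots with controls on a 0–100 scale where 100 denotes complete control. Preemergence treatments went onto freshly seeded loam/sand soil; postemergence treatments onto plants 2 to 18 cm tall.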"}, "[1]": {"system": "giant foxtail (Setaria faberii)", "method_in_brief": "as §1"}, "[2]": {"system": "downy bromegrass (Bromus tectorum)", "method_in_brief": "as §1"}, "[3]": {"system": "morningglory (Ipomoea coccinea)", "method_in_brief": "as §1"}, "[4]": {"system": "yellow nutsedge (Cyperus esculentus)", "method_in_brief": "as §1"}, "[5]": {"system": "green foxtail (Setaria viridis)", "method_in_brief": "as §1"}, "[6]": {"system": "lambsquarters (Chenopodium album)", "method_in_brief": "as §1"}, "[7]": {"system": "Surinam grass (Brachiaria decumbens)", "method_in_brief": "as §1"}, "[8]": {"system": "blackgrass (Alopecurus myosuroides)", "method_in_brief": "as §1"}, "[9]": {"system": "large crabgrass (Digitaria sanguinalis)", "method_in_brief": "as §1"}, "[10]": {"system": "bermudagrass (Cynodon dactylon)", "method_in_brief": "as §1"}, "[11]": {"system": "woolly cupgrass (Eriochloa villosa)", "method_in_brief": "as §1"}, "[12]": {"system": "Italian ryegrass (Lolium multiflorum)", "method_in_brief": "as §1"}, "[13]": {"details": "250 g ai/ha, Preemergence, 0 to 100 scale"}, "[14]": {"details": "Postemergence, 31 g ai/ha, scale 0 to 100 (0 no effect, 100 complete control)"}, "[15]": {"details": "Postemergence, 62 g ai/ha, scale 0 (no effect) to 100 (complete control), 13 to 15 days"}, "[16]": {"details": "Postemergence, 125 g ai/ha, visual rating after 13 to 15 days, scale 0 (no effect) to 100 (complete control)"}, "[17]": {"details": "Postemergence, 250 g ai/ha, scale 0 to 100"}, "[18]": {"details": "Preemergence, 31 g ai/ha, scale 0 to 100 (0 no effect, 100 complete control)"}, "[19]": {"details": "Preemergence, 62 g ai/ha, scale 0 to 100 (0 no effect, 100 complete control)"}, "[20]": {"details": "Preemergence, 125 g ai/ha, 0 to 100 scale"}}, "data": [{"smiles": "Cc1c(Cl)cccc1-n1c(-c2ccccc2)ncc(C(=O)C2=C(O)CCCC2=O)c1=O", "note": "[Compound 40]", "values": [{"measurement": "Plant response rating, Corn", "setting": "corn (Zea mays); [13]", "result": 0}, {"measurement": "Plant response rating, Corn", "setting": "corn (Zea mays); [14]", "result": 80}, {"measurement": "Plant response rating, Corn", "setting": "corn (Zea mays); [15]", "result": 80}, {"measurement": "Plant response rating, Corn", "setting": "corn (Zea mays); [16]", "result": 85}, {"measurement": "Corn plant response rating", "setting": "corn (Zea mays); [17]", "result": 90}, {"measurement": "Plant response rating, Corn", "setting": "corn (Zea mays); [18]", "result": 0}, {"measurement": "Plant response rating, Corn", "setting": "corn (Zea mays); [19]", "result": 0}, {"measurement": "Corn plant response rating", "setting": "corn (Zea mays); [20]", "result": 0}, {"measurement": "Plant response rating, Foxtail, Giant", "setting": "[1]; [13]", "result": 98}, {"measurement": "Plant response rating, Foxtail, Giant", "setting": "[1]; [14]", "result": 100}, {"measurement": "Plant response rating, Foxtail, Giant", "setting": "[1]; [15]", "result": 100}, {"measurement": "Plant response rating, Foxtail, Giant", "setting": "[1]; [16]", "result": 100}, {"measurement": "Foxtail, Giant plant response rating", "setting": "[1]; [17]", "result": 100}, {"measurement": "Plant response rating, Foxtail, Giant", "setting": "[1]; [18]", "result": 10}, {"measurement": "Plant response rating, Foxtail, Giant", "setting": "[1]; [19]", "result": 65}, {"measurement": "Foxtail, Giant plant response rating", "setting": "[1]; [20]", "result": 80}, {"measurement": "Plant response rating, Bromegrass, Downy", "setting": "[2]; [13]", "result": 10}, {"measurement": "Plant response rating, Bromegrass, Downy", "setting": "[2]; [14]", "result": 45}, {"measurement": "Plant response rating, Bromegrass, Downy", "setting": "[2]; [15]", "result": 50}, {"measurement": "Plant response rating, Bromegrass, Downy", "setting": "[2]; [16]", "result": 70}, {"measurement": "Bromegrass, Downy plant response rating", "setting": "[2]; [17]", "result": 85}, {"measurement": "Plant response rating, Bromegrass, Downy", "setting": "[2]; [18]", "result": 0}, {"measurement": "Plant response rating, Bromegrass, Downy", "setting": "[2]; [19]", "result": 0}, {"measurement": "Bromegrass, Downy plant response rating", "setting": "[2]; [20]", "result": 5}, {"measurement": "Plant response rating, Morningglory", "setting": "[3]; [13]", "result": 65}, {"measurement": "Plant response rating, Morningglory", "setting": "[3]; [16]", "result": 75}, {"measurement": "Plant response rating, Morningglory", "setting": "[3]; [18]", "result": 0}, {"measurement": "Plant response rating, Morningglory", "setting": "[3]; [19]", "result": 0}, {"measurement": "Morningglory plant response rating", "setting": "[3]; [20]", "result": 0}, {"measurement": "Plant response rating, Nutsedge, Yellow", "setting": "[4]; [13]", "result": 85}, {"measurement": "Plant response rating, Nutsedge, Yellow", "setting": "[4]; [15]", "result": 35}, {"measurement": "Plant response rating, Nutsedge, Yellow", "setting": "[4]; [16]", "result": 55}, {"measurement": "Plant response rating, Nutsedge, Yellow", "setting": "[4]; [18]", "result": 10}, {"measurement": "Nutsedge, Yellow plant response rating", "setting": "[4]; [20]", "result": 65}, {"measurement": "Plant response rating, Foxtail, Green", "setting": "[5]; [13]", "result": 100}, {"measurement": "Plant response rating, Foxtail, Green", "setting": "[5]; [14]", "result": 90}, {"measurement": "Plant response rating, Foxtail, Green", "setting": "[5]; [15]", "result": 95}, {"measurement": "Plant response rating, Foxtail, Green", "setting": "[5]; [16]", "result": 95}, {"measurement": "Foxtail, Green plant response rating", "setting": "[5]; [17]", "result": 95}, {"measurement": "Plant response rating, Foxtail, Green", "setting": "[5]; [18]", "result": 0}, {"measurement": "Plant response rating, Foxtail, Green", "setting": "[5]; [19]", "result": 85}, {"measurement": "Foxtail, Green plant response rating", "setting": "[5]; [20]", "result": 85}, {"measurement": "Plant response rating, Lambsquarters", "setting": "[6]; [13]", "result": 100}, {"measurement": "Plant response rating, Lambsquarters", "setting": "[6]; [15]", "result": 100}, {"measurement": "Plant response rating, Lambsquarters", "setting": "[6]; [16]", "result": 100}, {"measurement": "Lambsquarters plant response rating", "setting": "[6]; [17]", "result": 100}, {"measurement": "Plant response rating, Lambsquarters", "setting": "[6]; [18]", "result": 100}, {"measurement": "Plant response rating, Lambsquarters", "setting": "[6]; [19]", "result": 100}, {"measurement": "Lambsquarters plant response rating", "setting": "[6]; [20]", "result": 100}, {"measurement": "Plant response rating, Surinam Grass", "setting": "[7]; [13]", "result": 90}, {"measurement": "Plant response rating, Surinam Grass", "setting": "[7]; [15]", "result": 95}, {"measurement": "Plant response rating, Surinam Grass", "setting": "[7]; [16]", "result": 98}, {"measurement": "Plant response rating, Surinam Grass", "setting": "[7]; [18]", "result": 40}, {"measurement": "Surinam Grass plant response rating", "setting": "[7]; [20]", "result": 85}, {"measurement": "Plant response rating, Blackgrass", "setting": "[8]; [13]", "result": 5}, {"measurement": "Plant response rating, Blackgrass", "setting": "[8]; [14]", "result": 0}, {"measurement": "Plant response rating, Blackgrass", "setting": "[8]; [15]", "result": 10}, {"measurement": "Plant response rating, Blackgrass", "setting": "[8]; [16]", "result": 10}, {"measurement": "Blackgrass plant response rating", "setting": "[8]; [17]", "result": 15}, {"measurement": "Plant response rating, Blackgrass", "setting": "[8]; [18]", "result": 0}, {"measurement": "Plant response rating, Blackgrass", "setting": "[8]; [19]", "result": 0}, {"measurement": "Blackgrass plant response rating", "setting": "[8]; [20]", "result": 0}, {"measurement": "Plant response rating, Crabgrass, Large", "setting": "[9]; [13]", "result": 100}, {"measurement": "Plant response rating, Crabgrass, Large", "setting": "[9]; [14]", "result": 85}, {"measurement": "Plant response rating, Crabgrass, Large", "setting": "[9]; [15]", "result": 98}, {"measurement": "Plant response rating, Crabgrass, Large", "setting": "[9]; [16]", "result": 100}, {"measurement": "Crabgrass, Large plant response rating", "setting": "[9]; [17]", "result": 100}, {"measurement": "Plant response rating, Crabgrass, Large", "setting": "[9]; [18]", "result": 70}, {"measurement": "Plant response rating, Crabgrass, Large", "setting": "[9]; [19]", "result": 98}, {"measurement": "Crabgrass, Large plant response rating", "setting": "[9]; [20]", "result": 100}, {"measurement": "Plant response rating, Bermudagrass", "setting": "[10]; [13]", "result": 100}, {"measurement": "Plant response rating, Bermudagrass", "setting": "[10]; [15]", "result": 100}, {"measurement": "Plant response rating, Bermudagrass", "setting": "[10]; [16]", "result": 100}, {"measurement": "Bermudagrass plant response rating", "setting": "[10]; [17]", "result": 100}, {"measurement": "Plant response rating, Bermudagrass", "setting": "[10]; [18]", "result": 98}, {"measurement": "Plant response rating, Bermudagrass", "setting": "[10]; [19]", "result": 100}, {"measurement": "Bermudagrass plant response rating", "setting": "[10]; [20]", "result": 100}, {"measurement": "Plant response rating, Cupgrass, Woolly", "setting": "[11]; [13]", "result": 85}, {"measurement": "Plant response rating, Cupgrass, Woolly", "setting": "[11]; [14]", "result": 90}, {"measurement": "Plant response rating, Cupgrass, Woolly", "setting": "[11]; [15]", "result": 95}, {"measurement": "Plant response rating, Cupgrass, Woolly", "setting": "[11]; [16]", "result": 98}, {"measurement": "Cupgrass, Woolly plant response rating", "setting": "[11]; [17]", "result": 98}, {"measurement": "Plant response rating, Cupgrass, Woolly", "setting": "[11]; [18]", "result": 0}, {"measurement": "Plant response rating, Cupgrass, Woolly", "setting": "[11]; [19]", "result": 50}, {"measurement": "Cupgrass, Woolly plant response rating", "setting": "[11]; [20]", "result": 70}, {"measurement": "Plant response rating, Ryegrass, Italian", "setting": "[12]; [13]", "result": 5}, {"measurement": "Plant response rating, Ryegrass, Italian", "setting": "[12]; [15]", "result": 0}, {"measurement": "Plant response rating, Ryegrass, Italian", "setting": "[12]; [16]", "result": 0}, {"measurement": "Plant response rating, Ryegrass, Italian", "setting": "[12]; [18]", "result": 0}, {"measurement": "Ryegrass, Italian plant response rating", "setting": "[12]; [20]", "result": 5}]}]}
